In publication PMC10511702, “Design, molecular modelling and synthesis of novel benzothiazole derivatives as BCL-2 inhibitors” (Scientific Reports, 2023):

Columns and labels:
[1] = system: K-562; assay: NCI in vitro anti-proliferative single dose screen; type: cell-based, human; settings: K-562, single dose of 10 µM
Procedure: (§1) The national cancer institute (NCI) in vitro anticancer screening is a two-stage process, beginning with the evaluation of the selected compounds 13c and 13d against NCI leukemia cell line at a single dose of 10 µM. The human leukemia cell line was obtained and maintained at the NCI. The output from the single dose screen is reported as a mean graph. The detailed assay protocol is discussed in the supporting material.
(§2) This assay was performed for compounds 13c and 13d by the Developmental Therapeutics Program (DTP) of the National Cancer Institute (NCI), division of cancer treatment and diagnosis, NIH, Bethesda, Maryland, USA (www.dtp.nci.nih.gov). The operation of this screen utilizes leukemia human tumor cell line[37]. The human tumor cell lines of the cancer screening panel were grown in RPMI 1640 medium containing 5% fetal bovine serum and 2 mM L-glutamine.
(§3) Results for the two compounds were reported as a mean graph of the percent growth of the treated cells when compared to the untreated control cells. The results are expressed as cell growth percent for the tested compounds on each of the used NCI cell line panels.
(§4) The human tumor cell lines of the cancer screening panel were grown in RPMI 1640 medium containing 5% fetal bovine serum and 2 mM L-glutamine. For a typical screening experiment, cells are inoculated into 96 well microtiter plates in 100 µL at plating densities ranging from 5,000 to 40,000 cells/well depending on the doubling time of individual cell lines. After cell inoculation, the microtiter plates are incubated at 37° C, 5 % CO2, 95 % air and 100 % relative humidity for 24 hrs prior to addition of experimental drugs. After 24 hrs, two plates of each cell line are fixed in situ with trichloroacetic acid (TCA), to represent a measurement of the cell population for each cell line at the time of drug addition (Tz). Experimental drugs are solubilized in dimethyl sulfoxide at 400-fold the desired final maximum test concentration and stored frozen prior to use. At the time of drug addition, an aliquot of frozen concentrate is thawed and diluted to twice the desired final maximum test concentration with complete medium containing 50 µg/mL gentamicin. Additional four, 10-fold or ½ log serial dilutions are made to provide a total of five drug concentrations plus control. Aliquots of 100 µl of these different drug dilutions are added to the appropriate microtiter wells already containing 100 µl of medium, resulting in the required final drug concentrations.
(§5) Following drug addition, the plates are incubated for an additional 48 hrs at 37°C, 5 % CO2, 95 % air, and 100 % relative humidity. For adherent cells, the assay is terminated by the addition of cold TCA. Cells are fixed in situ by the gentle addition of 50 µl of cold 50 % (w/v) TCA (final concentration, 10 % TCA) and incubated for 60 minutes at 4°C. The supernatant is discarded, and the plates are washed five times with tap water and air dried. Sulforhodamine B (SRB) solution (100 µl) at 0.4 % (w/v) in 1 % acetic acid is added to each well, and plates are incubated for 10 minutes at room temperature. After staining, unbound dye is removed by washing five times with 1 % acetic acid and the plates are air dried. Bound stain is subsequently solubilized with 10 mMtrizma base, and the absorbance is read on an automated plate reader at a wavelength of 515 nm. For suspension cells, the methodology is the same except that the assay is terminated by fixing settled cells at the bottom of the wells by gently adding 50 µl of 80 % TCA (final concentration, 16 % TCA).
(§6) Using the seven absorbance measurements [time zero, (Tz), control growth, (C), and test growth in the presence of drug at the five concentration levels (Ti)], the percentage growth is calculated at each of the drug concentrations levels. Percentage growth inhibition is calculated as: […]

[2] = system: RPMI-8226; assay: NCI in vitro anti-proliferative single dose screen; type: cell-based, human; settings: RPMI-8226, single dose of 10 µM
Procedure: as §1, §2, §3, §4, §5, §6

[3] = system: CCRF-CEM; assay: NCI in vitro anti-proliferative single dose screen; type: cell-based, human; settings: single dose of 10 µM
Procedure: as §1, §2, §3, §4, §5, §6

[4] = system: HL-60(TB); assay: NCI in vitro anti-proliferative single dose screen; type: cell-based, human; settings: single dose of 10 µM
Procedure: as §1, §2, §3, §4, §5, §6

[5] = system: MOLT-4; assay: NCI in vitro anti-proliferative single dose screen; type: cell-based, human; settings: MOLT-4, single dose of 10 µM
Procedure: as §1, §2, §3, §4, §5, §6

[6] = system: SR; assay: NCI in vitro anti-proliferative single dose screen; type: cell-based, human; settings: single dose of 10 µM; for Cell growth percent: SR
Procedure: as §1, §2, §3, §4, §5, §6

[7] = biological target: T1, recombinant BCL-2 (Homo sapiens, UniProt P10415); assay: In vitro BCL-2 inhibitory activity, TR-FRET assay (BPS Bioscience); type: binding; settings: for IC50: 5 concentrations 1 nM-10 µM; for inhibition at 10 µM: single dose of 10 µM
T1 construct: purchased BPS Bioscience 50272
Procedure: The in vitro enzyme inhibition determination for the synthesized compounds was carried out in BPS Bioscience Corporation, San Diego, CA, USA (www.bpsbioscience.com). […] The assay was performed by TR-FRET technology using a recombinant BCL-2 and a peptide- ligand substrate. The TR-FRET signal from the assay is correlated with the amount of Ligand binding to BCL-2. […] All of the binding reactions were conducted at room temperature. […] The reaction mixture incubated for 180 min prior to reading the TR-FRET signal. For the background, ligand was replaced with assay buffer. Fluorescence signals for both the donor and acceptor dyes were measured using a Tecan Infinite M1000 plate reader. TR-FRET was recorded as the ratio of the fluorescence of the acceptor and the donor dyes (acceptor/donor). Binding experiments were performed in duplicate at each concentration. The TR-FRET data were analyzed using the computer software, Graphpad Prism. In the absence of the compound in wells containing BCL-2 ligand, the TR-FRET signal (Ft) in each data set was defined as 100% activity. In wells without peptide ligand, the TR-FRET signal (Fb) in each data set was defined as 0% activity. The percent activity in the presence of each compound was calculated according to the following equation: % activity = [(F − Fb)/ (Ft − Fb)] × 100, where F = the TR-FRET signal in the presence of the compound. The percent inhibition was calculated according to the following equation: % inhibition = 100—% activity. IC50 determination for target compounds against BCL-2 was calculated. […] The IC50 value was determined by the concentration causing a half-maximal percent activity.

[8] = system: NCI leukemia cell line; assay: NCI in vitro anti-proliferative screen, leukemia panel as a whole; type: cell-based, human; settings: single dose of 10 µM
Procedure: as §1
as §2, with “The human tumor cell lines of the cancer screening panel were grown in RPMI 1640 medium containing 5% fetal bovine serum and 2 mM L-glutamine.” left out
Results for the two compounds were reported as a mean graph of the percent growth of the treated cells when compared to the untreated control cells. The results are expressed as cell growth percent for the tested compounds on each of the used NCI cell line panels. […]
Following drug addition, the plates are incubated for an additional 48 hrs at 37°C, 5 % CO2, 95 % air, and 100 % relative humidity. […] Bound stain is subsequently solubilized with 10 mMtrizma base, and the absorbance is read on an automated plate reader at a wavelength of 515 nm. […]

[9] = system: BCL-2; settings: cited from earlier work

T1 sequence (P10415 whole entry): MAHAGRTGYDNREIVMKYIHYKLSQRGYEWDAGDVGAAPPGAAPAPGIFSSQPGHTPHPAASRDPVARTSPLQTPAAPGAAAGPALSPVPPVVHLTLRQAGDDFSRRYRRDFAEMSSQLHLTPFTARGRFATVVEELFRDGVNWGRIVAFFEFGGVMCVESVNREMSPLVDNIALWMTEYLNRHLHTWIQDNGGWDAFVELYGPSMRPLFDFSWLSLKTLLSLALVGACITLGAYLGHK

Row | SMILES | melting point [°C] | inhibition at 10 µM [7] [%] | other results
1 | Cc1ccc(COc2ccc(NC(=O)c3ccc4nc(NC(=O)c5ccc(NCCc6ccccc6)c([N+](=O)[O-])c5)sc4c3)cc2)cc1 [13c, N-(4-((4-Methylbenzyl)oxy)phenyl)-2-(3-nitro-4-(phenethylamino)benzamido)benzo-[d]thiazole-6-carboxamide] | 138 to 140 | 84 | Cell growth percent [1]: 87.23%; Cell growth percent [2]: 87.5%; Cell growth percent [3]: 93.91%; Cell growth percent [4]: 75.74%; Cell growth percent [5]: 94.74%; Cell growth percent [6]: 82.5%; IC50 [7]: 471 nM; inhibition against the used leukemia cell line (in words) [8]: poor inhibition
2 | O=C(Nc1ccc(OCc2ccc(C(F)(F)F)cc2)cc1)c1ccc2nc(NC(=O)c3ccc(NCCc4ccccc4)c([N+](=O)[O-])c3)sc2c1 [13d, N-(4-((4-Trifluoromethylbenzyl)oxy)phenyl)-2-(3-nitro-4-(phenethylamino)benzamido)-benzo[d]thiazole-6-carboxamide] | 218 to 220 |  | Cell growth percent [1]: 67.92%; Cell growth percent [2]: 69.86%; Cell growth percent [3]: 68.2%; Cell growth percent [4]: 96.87%; Cell growth percent [5]: 74.37%; inhibition at 10 µM ([6]; Homo sapiens, leukemic SR cell lines, read-out: growth inhibition): 62.9%; Cell growth percent [6]: 37.13%; IC50 [7]: 363 nM
3 | O=C(Nc1cccc(Cl)c1)Nc1ccc2nc(NS(=O)(=O)c3ccc4ccccc4c3)sc2c1 [17b, N-(6-(3-(3-Chlorophenyl)ureido)benzo[d]thiazol-2-yl)naphthalene-2-sulfonamide] | ≥ 300 | 7 | 
4 | O=C(Nc1cccc(Br)c1)Nc1ccc2nc(NS(=O)(=O)c3ccc4ccccc4c3)sc2c1 [17c, N-(6-(3-(3-Bromophenyl)ureido)benzo[d]thiazol-2-yl)naphthalene-2-sulfonamide] | ≥ 300 | 10 | 
5 | COc1cccc(NC(=O)Nc2ccc3nc(NS(=O)(=O)c4ccc5ccccc5c4)sc3c2)c1 [17d, N-(6-(3-(3-Methoxyphenyl)ureido)benzo[d]thiazol-2-yl)naphthalene-2-sulfonamide] | ≥ 300 | 7 | 
6 | Cc1cccc(NC(=O)Nc2ccc3nc(NS(=O)(=O)c4ccc5ccccc5c4)sc3c2)c1 [17e, N-(6-(3-(m-Tolyl)ureido)benzo[d]thiazol-2-yl)naphthalene-2-sulfonamide] | ≥ 300 | 0 | 
7 | O=C(Nc1ccc(Br)cc1)Nc1ccc2nc(NS(=O)(=O)c3ccc4ccccc4c3)sc2c1 [17f, N-(6-(3-(4-Bromophenyl)ureido)benzo[d]thiazol-2-yl)naphthalene-2-sulfonamide] | ≥ 300 | > 60 | IC50 [7]: 2290 nM
8 | O=C(Nc1ccc(Cl)c(C(F)(F)F)c1)Nc1ccc2nc(NS(=O)(=O)c3ccc4ccccc4c3)sc2c1 [17g, N-(6-(3-(4-Chloro-3-(trifluoromethyl)phenyl)ureido)benzo[d]thiazol-2-yl)naphthalene-2-sulfonamide] | ≥ 300 | 18 | 
9 | O=C(Nc1ccc(Cl)c(Cl)c1)Nc1ccc2nc(NS(=O)(=O)c3ccc4ccccc4c3)sc2c1 [17h, N-(6-(3-(3,4-Dichlorophenyl)ureido)benzo[d]thiazol-2-yl)naphthalene-2-sulfonamide] | 290 to 292 | 0 | 
10 | Cc1cc(Cl)ccc1NC(=O)Nc1ccc2nc(NS(=O)(=O)c3ccc4ccccc4c3)sc2c1 [17i, N-(6-(3-(4-Chloro-2-methylphenyl)ureido)benzo[d]thiazol-2-yl)naphthalene-2-sulfonamide] | 280 to 282 | 14 | 
11 | Cc1ccc(NC(=O)Nc2ccc3nc(NS(=O)(=O)c4ccc5ccccc5c4)sc3c2)cc1Cl [17j, N-(6-(3-(3-Chloro-4-methylphenyl)ureido)benzo[d]thiazol-2-yl)naphthalene-2-sulfonamide] | ≥ 300 | 9 | 
12 | CCCCc1c(-c2ccc(C(=O)NS(=O)(=O)c3ccc4ccccc4c3)cc2C(=O)N2CCc3ccccc3C2)c(CO)nn1-c1ccc(Oc2cccc(Cl)c2)cc1 [Compound 1] | 42 to 44 |  | IC50 [9]: 6 nM
